Laboratory results from ChEMBL document CHEMBL3603746, “Discovery of New H2S Releasing Phosphordithioates and 2,3-Dihydro-2-phenyl-2-sulfanylenebenzo[d][1,3,2]oxazaphospholes with Improved Antiproliferative Activity” (J Med Chem, 2015).

Legend:
[1] = system: SK-OV-3; assay: Cytotoxicity against human SKOV3 cells assessed as inhibition of cell proliferation after 4 days by crystal violet assay; assay type: functional, cell-based; settings: SK-OV-3, 96 h
[2] = Induction of H2S release in 10% PBS:MeCN solution at 5 mM incubated at 37 degC in dark condition measured at 96 hrs by 2, 6-dansyl azide probed-based fluorescence assay relative to GYY4137; assay type: physicochemical; settings: buffer, 5000 µM
[3] = system: MCF7; assay: cells; assay type: functional, cell-based; settings: Homo sapiens, MCF7, 72 h
Description: Cytotoxicity against human MCF7 cells assessed as inhibition of cell proliferation after 72 hrs by MTT assay

[4] = system: MDA-MB-231; assay: cells; assay type: functional, cell-based; settings: Homo sapiens, MDA-MB-231, 72 h
Description: Cytotoxicity against human MDA-MB-231 cells assessed as inhibition of cell proliferation after 72 hrs by MTS assay

[5] = Induction of H2S release in 10% PBS:MeCN solution assessed as ratio of H2S level at 37 degC to H2S level at 22 degC at 5 mM incubated in dark condition measured at 96 hrs by 2, 6-dansyl azide probed-based fluorescence assay; settings: buffer, 5000 µM
[6] = Induction of H2S release in 10% PBS:MeCN solution at 5 mM incubated at 22 degC in dark condition measured at 96 hrs by 2, 6-dansyl azide probed-based fluorescence assay relative to GYY4137; assay type: physicochemical; settings: buffer, 5000 µM
[7] = Induction of H2S release in 10% PBS:MeCN solution at 5 mM incubated at 22 degC in dark condition measured at 96 hrs by 2, 6-dansyl azide probed-based fluorescence assay relative to control; settings: buffer, 5000 µM
[8] = Toxicity in human WI38 cells assessed as inhibition of cell proliferation after 4 days by crystal violet assay
[9] = Therapeutic index, ratio of IC50 for human WI38 cells to IC50 for human PC3 cells; settings: WI38 cells and PC3 cells
[10] = Therapeutic index, ratio of IC50 for human WI38 cells to IC50 for human MBA-MD-231 cells; settings: WI38 cells and MBA-MD-231 cells
[11] = Therapeutic index, ratio of IC50 for human WI38 cells to IC50 for human SKOV3 cells; settings: WI38 cells and SKOV3 cells
[12] = Induction of H2S release in aqueous acetonitrile solution at 400 uM measured over 4 days by probe 21-based fluorescence assay; settings: buffer, 96 h
[13] = Induction of H2S release in aqueous acetonitrile solution at 200 uM measured over 4 days by probe 21-based fluorescence assay; settings: buffer, 96 h
[14] = system: PC-3; assay: cells; assay type: functional, cell-based; settings: Homo sapiens, PC-3, 72 h
Description: Cytotoxicity against human PC3 cells assessed as inhibition of cell proliferation after 72 hrs by MTT assay

[15] = Therapeutic index, ratio of IC50 for human WI38 cells to IC50 for human MCF7 cells; settings: WI38 cells and MCF7 cells
[16] = Induction of H2S release in 10% PBS:MeCN solution at 5 mM incubated at 37 degC in dark condition measured at 96 hrs by 1 mM 2, 6-dansyl azide probed-based fluorescence assay relative to control; settings: buffer, 5000 µM
[17] = system: MCF7; assay: Cytotoxicity against human MCF7 cells assessed as inhibition of cell proliferation after 4 days by crystal violet assay; assay type: functional, cell-based; settings: MCF7, 96 h
[18] = Induction of H2S release in 10% PBS:MeCN solution at 100 uM incubated at 37 degC in dark condition measured at 72 hrs by 2, 6-dansyl azide probed-based fluorescence assay; assay type: physicochemical; settings: buffer
[19] = Induction of H2S release in 10% PBS:MeCN solution at 1 mM incubated at 22 degC in dark condition measured at 72 hrs by 2, 6-dansyl azide probed-based fluorescence assay; assay type: physicochemical; settings: buffer, 1000 µM
[20] = Effective permeability of the compound at 500 uM after 6 hrs by PAMPA; settings: PAMPA
[21] = Effective permeability of the compound at 500 uM after 16 hrs by PAMPA
[22] = physchem; settings: DMSO, pH 7.4
Description: Kinetic solubility of the compound in DMSO at pH 7.4 measured at 24 hrs by multiscreen filter paper-based UV absorbance analysis

[23] = Induction of H2S release in 10% PBS:MeCN solution at 5 mM incubated at 37 degC in dark condition measured at 96 hrs by 0.2 mM 2, 6-dansyl azide probed-based fluorescence assay relative to control; assay type: physicochemical; settings: buffer, 5000 µM
[24] = physchem; settings: DMSO, pH 7.4; remark: listed apart in the source
Description: Kinetic solubility of the compound in DMSO at pH 7.4 measured at 3 hrs by multiscreen filter paper-based UV absorbance analysis

SMILES | IC50 [1] [µM] | fold change (FC) [2] | IC50 [3] [µM] | IC50 [4] [µM] | Ratio [5] | fold change (FC) [6] | %max [7] [%] | IC50 at 4 days [8] [µM] | selectivity ratio [11] | selectivity ratio [15] | IC50 [17] [µM] | Activity [18] [µM] | Activity [19] [µM] | %max [23] [%] | further results
COc1ccc(P(=S)(S)NCc2ccccc2)cc1.NCc1ccccc1 (stereo unspecified) | 89.9 | 0.8 | 82.4 | 41.1 | 2.3 | 1.5 | 2.19 | 208 | 2.3 | 2.3 | 84.2 |  |  |  | selectivity ratio [9]: 2.3; selectivity ratio [10]: 2.3; Activity [12]: 10.29 µM; Activity [13]: 5.55 µM; IC50 [14]: 31.9 µM; %max [16]: 5.07%
COc1ccc(P2(=S)Nc3ccc(C)cc3O2)cc1 (stereo unspecified) | 211 |  |  |  |  |  |  | > 400 | 1.9 |  | 93.2 | 48.2 | 59 |  | 
CCNCCOP(=S)(S)c1ccc(OC)cc1 (stereo unspecified) | > 400 | < 0.1 | 481 | > 500 |  |  | < 0.01 |  |  |  | > 400 |  |  | 0.03 | Papp at 6 h, 500 µM [20]: 0.013 ×10⁻⁶ cm/s; Papp at 16 h, 500 µM [21]: 0.0041 ×10⁻⁶ cm/s; solubility kinetic at 24 h [22]: > 290 µg/mL; solubility kinetic at 3 h [24]: > 290 µg/mL
COc1ccc(P(=S)(S)OCCCN)cc1 (stereo unspecified) | > 400 | < 0.1 | > 500 | > 500 | 2.7 | < 0.1 | 0.02 |  |  |  | > 400 |  |  | 0.06 | Papp at 6 h, 500 µM [20]: 0.007 ×10⁻⁶ cm/s; Papp at 16 h, 500 µM [21]: 0.0027 ×10⁻⁶ cm/s; solubility kinetic at 24 h [22]: > 280 µg/mL
C1COCCN1.COc1ccc(P(=S)(S)OC(C)C)cc1 (stereo unspecified) | 200 | < 0.1 | 205 | 84.6 | 3 | < 0.1 | 0.04 | > 400 | 1.5 | 1.5 | 266 |  |  | 0.12 | selectivity ratio [10]: 1.5
Cc1ccc2c(c1)OP(=S)(c1ccc(Oc3ccccc3)cc1)N2 (stereo unspecified) | 196 |  |  |  |  |  |  | > 400 | 2 |  | 186 | 59.9 | 39.2 |  | 
COc1ccc(P2(=S)Nc3ccccc3O2)cc1 (stereo unspecified) | 38.1 |  |  |  |  |  |  | 94.4 | 2.5 | 2.5 | 37.1 | 42.7 | 48.3 |  | 
COc1ccc(P2(=S)Oc3ccccc3N2C)cc1 (stereo unspecified) | 44.2 |  |  |  |  |  |  | 92.5 | 2.1 | 2.1 | 42.6 | 10.1 | 2.1 |  | 
COc1ccc(P2(=S)Nc3cc(OC)ccc3O2)cc1 (stereo unspecified) | 30.2 |  |  |  |  |  |  | 115 | 2.9 | 2.9 | 39.4 |  |  |  | Activity ([18]; BLD = below limit of detection): BLD; Activity ([19]; BLD = below limit of detection): BLD
